Results on 23 compounds are retold here after patent publication US9434711B2 (Janssen Pharmaceutica, NV, priority 2007, dated 2016).

SMILES strings stand for the structures. Where two headings read alike, the source gives them in different places.

The target of this assay is canine TRPM8 (Canis lupus familiaris, UniProt Q1A7N1). In words: In Vitro Canine TRPM8 Functional Assay (Ca2+ fluorescence, icilin activation). The class given is cell-based. Conditions: for IC50: HEK293 cells stably expressing canine TRPM8, icilin activation, eight-point dose-response, read-out: IC50; for inhibition at 0.2 µM: read-out: % Inh @ 0.2; for inhibition at 0.5 µM: compound at 0.5 μM, read-out: % Inh @ 0.5. In outline:
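Canine TRPM8 stably expressed in HEK293; compound added 5 min before icilin challenge (~80% max response), with fluorescent Ca2+ signal tracked throughout.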

[1] abbreviates: compound at 0.2 μM, canine TRPM8, icilin activation.
Setting [2] is: canine TRPM8, icilin activation.

Chain of canine TRPM8 (Q1A7N1 1-1104): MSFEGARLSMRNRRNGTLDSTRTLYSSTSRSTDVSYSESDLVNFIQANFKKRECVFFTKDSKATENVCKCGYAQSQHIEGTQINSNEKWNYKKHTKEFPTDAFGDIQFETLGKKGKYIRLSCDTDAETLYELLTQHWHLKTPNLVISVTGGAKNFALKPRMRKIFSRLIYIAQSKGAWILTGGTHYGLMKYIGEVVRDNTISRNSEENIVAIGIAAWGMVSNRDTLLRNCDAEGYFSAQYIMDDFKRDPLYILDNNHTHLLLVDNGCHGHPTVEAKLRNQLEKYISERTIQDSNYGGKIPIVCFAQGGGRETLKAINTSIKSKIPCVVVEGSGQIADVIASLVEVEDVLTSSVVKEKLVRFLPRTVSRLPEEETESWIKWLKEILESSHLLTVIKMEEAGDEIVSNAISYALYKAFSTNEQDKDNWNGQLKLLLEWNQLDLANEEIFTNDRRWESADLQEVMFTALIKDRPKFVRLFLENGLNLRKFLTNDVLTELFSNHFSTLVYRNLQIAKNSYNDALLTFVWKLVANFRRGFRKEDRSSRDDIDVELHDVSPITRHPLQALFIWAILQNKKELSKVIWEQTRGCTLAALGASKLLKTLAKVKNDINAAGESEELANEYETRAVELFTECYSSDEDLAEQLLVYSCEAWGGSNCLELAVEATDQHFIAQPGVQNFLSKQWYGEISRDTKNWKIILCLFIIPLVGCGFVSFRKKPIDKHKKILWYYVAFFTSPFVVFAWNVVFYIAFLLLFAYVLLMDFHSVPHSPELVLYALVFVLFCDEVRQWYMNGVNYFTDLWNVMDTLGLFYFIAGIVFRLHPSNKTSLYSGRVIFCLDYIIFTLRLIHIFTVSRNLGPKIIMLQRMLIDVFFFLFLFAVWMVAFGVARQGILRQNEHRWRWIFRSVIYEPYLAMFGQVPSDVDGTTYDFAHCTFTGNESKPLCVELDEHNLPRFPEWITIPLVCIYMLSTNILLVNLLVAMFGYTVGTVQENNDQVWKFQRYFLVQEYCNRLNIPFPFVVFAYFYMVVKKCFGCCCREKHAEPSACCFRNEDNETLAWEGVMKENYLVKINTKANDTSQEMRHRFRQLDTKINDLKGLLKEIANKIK

Take `CCCCN(C1=C(N(C)C)c2ccccc2S1(=O)=O)S(=O)(=O)c1ccc(C(=O)O)cc1` [Compound 536, N-(Butyl)-N-(3-dimethylamino-1,1-dioxo-1H-benzo[b]thiophen-2-yl)-4-carboxy-benzenesulfonamide]: the IC50 turned out to be 77 nM. In addition, under setting [1], the inhibition at 0.2 µM came out at 89%.

`N#Cc1cccc(S(=O)(=O)N(Cc2ccc(F)c(C(F)(F)F)c2)c2cc3ccccc3s2)c1` [Compound 370, N-(Benzo[b]thiophen-2-yl)-N-(4-fluoro-3-trifluoromethyl-benzyl)-3-cyano-benzenesulfonamide]: under setting [1], the inhibition at 0.2 µM turned out to be 29%. Regarding `CCCCN(C1=Cc2ccccc2S1(=O)=O)S(=O)(=O)c1ccc(C(=O)O)cc1` [Compound 432, N-(Butyl)-N-(1,1-dioxo-1H-benzo[b]thiophen-2-yl)-4-carboxy-benzenesulfonamide], the inhibition at 0.2 µM under setting [1] came to 42%.

As to `O=C(O)c1ccc(S(=O)(=O)N(CCC(F)(F)F)c2cc3ccccc3s2)cc1` [Compound 456, N-(Benzo[b]thiophen-2-yl)-N-(3,3,3-trifluoro-propyl)-4-carboxy-benzenesulfonamide], the inhibition at 0.2 µM under setting [1] was 67%. `CC#CCCN(c1sc2ccccc2c1C)S(=O)(=O)CC` [Compound 107, N-(3-Methyl-benzo[b]thiophen-2-yl)-N-(pent-3-ynyl)-ethanesulfonamide]: the inhibition at 0.2 µM under setting [1] came out at 72%. For `COc1ccc(S(=O)(=O)N(Cc2ccc(F)c(C(F)(F)F)c2)c2cc3ccccc3s2)cc1` [Compound 134, N-(Benzo[b]thiophen-2-yl)-N-(4-fluoro-3-trifluoromethyl-benzyl)-4-methoxy-benzenesulfonamide], the inhibition at 0.2 µM under setting [1] was determined as 30%. Same read-out and setting: under `NS(=O)(=O)N(CC1CC1)c1sc2ccccc2c1Br` [Compound 303, N-(3-Bromo-benzo[b]thiophen-2-yl)-N-(cyclopropylmethyl)-sulfamide] stands 56%. In the case of `O=C(O)c1ccc(S(=O)(=O)N(CCC(F)(F)F)c2sc3ncccc3c2Cl)cc1` [Compound 815, N-(3-Chloro-thieno[2,3-b]pyridin-2-yl)-N-(3,3,3-trifluoro-propyl)-4-carboxy-benzenesulfonamide], under “0.2 μM compound, HEK293 cells stably expressing canine TRPM8, icilin activation”, the inhibition at 0.2 µM is 44%. On to `CNc1ccc(S(=O)(=O)N(CCC2CC2)c2sc3ccccc3c2Cl)cc1Cl` [Compound 691, 3-Chloro-N-(3-chloro-benzo[b]thiophen-2-yl)-N-(2-cyclopropyl-ethyl)-4-methylamino-benzenesulfonamide], for which the IC50 was determined as 16 nM. Moreover, the inhibition at 0.2 µM under setting [1] is 102%. For `CN(C)CCN(c1sc2ccccc2c1Br)S(=O)(=O)c1ccccc1` [Compound 238, N-(3-Bromo-benzo[b]thiophen-2-yl)-N-(2-dimethylamino-ethyl)-benzenesulfonamide], the IC50 worked out at 93 nM. In addition, the inhibition at 0.5 µM under setting [2] stood at 96%. For `Cc1c(N(Cc2ccc(F)c(C(F)(F)F)c2)S(=O)(=O)c2cccc(Oc3ccccc3)c2)sc2ccccc12` [Compound 70, N-(4-Fluoro-3-trifluoromethyl-benzyl)-N-(3-methyl-benzo[b]thiophen-2-yl)-3-phenoxy-benzenesulfonamide], the IC50 came out at 7 nM. Besides, the inhibition at 0.2 µM under setting [1] worked out at 99%. In the case of `CCS(=O)(=O)N(Cc1ccc(F)c(F)c1)c1sc2ccccc2c1C` [Compound 41, N-(3,4-Difluoro-benzyl)-N-(3-methyl-benzo[b]thiophen-2-yl)-ethanesulfonamide], the IC50 stood at 5.4 nM. Further, the inhibition at 0.5 µM under setting [2] stood at 99%.

Turning to `CNc1ccc(S(=O)(=O)N(CCC2CC2)c2sc3ccccc3c2Br)cc1Br` [Compound 692, 3-Bromo-N-(3-bromo-benzo[b]thiophen-2-yl)-N-(2-cyclopropyl-ethyl)-4-methylamino-benzenesulfonamide], the IC50 amounted to 7.2 nM. In addition, under setting [1], the inhibition at 0.2 µM was 101%.

Take `O=S(=O)(c1ccc(-c2nnn[nH]2)cc1)N(CCCCC(F)(F)F)c1sc2ccccc2c1Cl` [Compound 580, N-(3-Chloro-benzo[b]thiophen-2-yl)-N-(5,5,5-trifluoro-pentyl)-4-(1H-tetrazol-5-yl)-benzenesulfonamide]: the IC50 was determined as 22.1 nM. Further, under setting [1], the inhibition at 0.2 µM came to 101%. For the compound `O=S(=O)(c1cccc(-c2nnn[nH]2)c1)N(Cc1ccc(F)c(C(F)(F)F)c1)c1sc2ccccc2c1Cl` [Compound 578, N-(3-Chloro-benzo[b]thiophen-2-yl)-N-(4-fluoro-3-trifluoromethyl-benzyl)-3-(1H-tetrazol-5-yl)-benzenesulfonamide], the IC50 amounted to 26.7 nM. Moreover, under setting [1], the inhibition at 0.2 µM was 91%. With `COCCN(c1sc2ccccc2c1Br)S(=O)(=O)c1ccc(C(=O)O)cc1` [Compound 274, N-(3-Bromo-benzo[b]thiophen-2-yl)-N-(2-methoxyethyl)-4-carboxy-benzenesulfonamide], the IC50 is 36 nM. In addition, the inhibition at 0.2 µM under setting [1] was determined as 94%. On the same counts, the results for `CNCc1c(N(Cc2ccc(F)c(C(F)(F)F)c2)S(=O)(=O)c2ccccc2)sc2ccccc12` [Compound 417, N-(4-Fluoro-3-trifluoromethyl-benzyl)-N-(3-methylaminomethyl-benzo[b]thiophen-2-yl)-benzenesulfonamide] are 62 nM and 93%. As to `COC(=O)CN(c1sc2ccccc2c1C)S(=O)(=O)c1ccccc1` [Compound 101, N-(3-Methyl-benzo[b]thiophen-2-yl)-N-(carbomethoxy-methyl)-benzenesulfonamide], the half-inhibitory concentration (IC50) turned out to be 30.5 nM. For the same compound, the inhibition at 0.2 µM under setting [1] is 101%.

As to `O=S(=O)(c1ccc(O)cc1)N(Cc1ccc(F)c(C(F)(F)F)c1)c1sc2ccccc2c1Cl` [Compound 289, N-(3-Chloro-benzo[b]thiophen-2-yl)-N-(4-fluoro-3-trifluoromethyl-benzyl)-4-hydroxy-benzenesulfonamide], the IC50 worked out at 27 nM. For the same compound, the inhibition at 0.2 µM under setting [1] worked out at 92%.

Turning to `O=C(O)c1ccc(S(=O)(=O)N(CC2CCCC2)c2sc3ccccc3c2Br)cc1` [Compound 438, N-(3-Bromo-benzo[b]thiophen-2-yl)-N-(cyclopentylmethyl)-4-carboxy-benzenesulfonamide], the IC50 is 2 nM. The inhibition at 0.2 µM under setting [1] stood at 90%. On to `O=S(=O)(c1ccccc1)N(Cc1ccc(C(F)(F)F)cc1)c1sc2ccccc2c1Cl` [Compound 8, N-(3-Chloro-benzo[b]thiophen-2-yl)-N-(4-trifluoromethyl-benzyl)-benzenesulfonamide], for which the IC50 was found to be 10 nM. In addition, the inhibition at 0.5 µM under setting [2] was 99%. Take `O=S(=O)(c1ccccc1)N(Cc1ccc(Cl)cc1)c1sc2ccccc2c1Br` [Compound 159, N-(3-Bromo-benzo[b]thiophen-2-yl)-N-(4-chloro-benzyl)-benzenesulfonamide]: the IC50 was found to be 13.4 nM. Also, under setting [2], the inhibition at 0.5 µM was 98%. For `Cc1c(N(Cc2ccc(F)c(C(F)(F)F)c2)S(=O)(=O)c2cccnc2N(C)C)sc2ccccc12` [Compound 358, N-(3-Methyl-benzo[b]thiophen-2-yl)-N-(4-fluoro-3-trifluoromethyl-benzyl)-2-dimethylamino-pyridin-3-yl-sulfonamide], the IC50 was determined as 12 nM. The inhibition at 0.2 µM under setting [1] stood at 92%.
